For experiment [1], the system named is drug-resistant CEM/VBL100 cells. The experiment in a line: Cytotoxicity by Trypan blue assay on CEM/VBL100 cells. In kind it is cell-based. Particulars: CEM/VBL100, 24 h. The procedure: Increasing concentrations of VBL alone and loaded into the plant nanovesicles were used to assess the cytotoxic effect on CEM and CEM/VBL100 leukaemic cells by Trypan blue assay after 48 and 24 h of incubation, respectively. A) The cytotoxic effect on CEM cells starts to be evident at a concentration of 1000 ng/mL and is enhanced in VBL loaded in the plant nanovesicles (2.6-fold higher than in VBL alone).

In another experiment the test system is human melanoma cells. The experiment in a line: Transfer of AO to tumour cells, spectrofluorimeter. In kind it is cell-based. To be noted: AO 0.1 pg/mL; cells cultured in unbuffered medium. The text has this:
Acridine orange was not activated with blue light.

In general, mortality refers to the share of the test organisms that died. Higher therefore signals a strong lethal effect. In experiment [1], `CC[C@]1(O)C[C@@H]2CN(CCc3c([nH]c4ccccc34)[C@@](C(=O)OC)(c3cc4c(cc3OC)N(C)[C@H]3[C@@](O)(C(=O)OC)[C@H](OC(C)=O)[C@]5(CC)C=CCN6CC[C@]43[C@@H]65)C2)C1` [VBL, vinblastine] came in with a mortality at 0.0001 µg/mL of 0.7%.

In the case of `CN(C)c1ccc2cc3ccc(N(C)C)cc3nc2c1` [AO, Acridine Orange], in the experiment with human melanoma cells, the “percentage of AO transferred to tumour cells” value is listed as “significantly reduced”.

The record behind these values is patent US20240156744A1, “METHOD OF APPLYING ELECTRICAL IMPULSES FOR THE PURPOSE OF LOADING VARIOUS MOLECULES INTO PLANT-DERIVED NANOVESICLES” (EXO LAB ITALIA, S.r.l., priority 2021, published 2024).
